Laboratory results reported in US12318380B2, “Treatment of demyelinating diseases” (priority 2018, dated 2025).
Where a name gives a salt, the structure may show the parent alone. Read-outs that look alike come from different tables or passages of the source.

How the values were obtained:
EAE model = details: 10 mg/kg starting at the time of immunization; cited from earlier work
[1] = test system: myelin in corpus callosum of cuprizone-treated mice; assay: TEM of corpus callosum in cuprizone model (g-ratio, myelinated axons, myelin area); format: in vivo, female C57BL/6 mice
[2] = test system: lymphocyte populations in the spleen; assay: Splenocyte flow cytometry in chronic phase of EAE; format: in vivo, female C57BL/6 mice; details: 0.01 mg/kg i.p. daily from disease onset; 27 days post treatment initiation
EAE-induced weight loss = format: in vivo, female C57BL/6 mice; details: 0.3, 0.1 or 0.03 mg/kg i.p. daily from day 17
[3] = target: T1, kappa opioid receptor (KOR) (Mus musculus, UniProt P33534); assay: EAE with KOR antagonist norBNI; format: in vivo, female C57BL/6 mice
T1 construct: from tissue; host or cells: whole animal: female C57BL/6 mice (EAE model)

[4] = test system: infiltrating immune cells (CD45high) in the brain; assay: Immune cell infiltration into the brain in EAE (flow cytometry); format: in vivo, female C57BL/6 mice
itch = details: in vivo; cited from earlier work
[5] = test system: cuprizone model of demyelination; assay: Rotarod assay in cuprizone model of demyelination; format: in vivo, female C57BL/6 mice; details: 0.1 mg/kg i.p. daily from week 4
[6] = test system: Histamine induced scratch; details: PO; Togashi et al. (2002); cited from earlier work
[7] = test system: activated GFAP+ astrocytes in the spinal cord; assay: GFAP immunohistochemistry of spinal cord in EAE; format: in vivo, female C57BL/6 mice; details: 0.01 mg/kg i.p. daily from day 17; day 45
[8] = Weight change in cuprizone model of demyelination; format: in vivo, female C57BL/6 mice
[9] = test system: leucocyte infiltration into the spinal cord; assay: H&E staining of spinal cord for leucocyte infiltration in EAE; format: in vivo, female C57BL/6 mice; details: 0.01 mg/kg i.p. daily from disease onset; chronic phase
[10] = test system: Substance P induced scratch; details: cited from earlier work
[11] = test system: cuprizone demyelination disease model of MS; assay: von Frey mechanical withdrawal threshold in cuprizone model; format: in vivo, female C57BL/6 mice; details: 0.1 mg/kg/i.p. daily from day 28 or 35
[12] = test system: myelin in spinal cord of EAE mice; assay: TEM of spinal cord sections in EAE; format: in vivo, female C57BL/6 mice; details: 0.03 mg/kg i.p. daily from day 17; day 45
Morphine induced scratch = details: SC; Winfuran assessment report EMA/CHMP/138212/2014; cited from earlier work
[13] = test system: myelin in spinal cord of EAE mice; assay: Luxol fast blue staining of spinal cord in EAE; format: in vivo, female C57BL/6 mice; details: chronic phase
[14] = 0.1 mg/kg/i.p. daily from day 28, day 70
[15] = nalfurafine 0.1 mg/kg/i.p. or U-50488 1.6 mg/kg/i.p. daily from day 28, day 70
[16] = norBNI 10 mg/kg i.p. weekly with nalfurafine 0.01 mg/kg i.p. daily

T1 sequence (P33534 whole entry): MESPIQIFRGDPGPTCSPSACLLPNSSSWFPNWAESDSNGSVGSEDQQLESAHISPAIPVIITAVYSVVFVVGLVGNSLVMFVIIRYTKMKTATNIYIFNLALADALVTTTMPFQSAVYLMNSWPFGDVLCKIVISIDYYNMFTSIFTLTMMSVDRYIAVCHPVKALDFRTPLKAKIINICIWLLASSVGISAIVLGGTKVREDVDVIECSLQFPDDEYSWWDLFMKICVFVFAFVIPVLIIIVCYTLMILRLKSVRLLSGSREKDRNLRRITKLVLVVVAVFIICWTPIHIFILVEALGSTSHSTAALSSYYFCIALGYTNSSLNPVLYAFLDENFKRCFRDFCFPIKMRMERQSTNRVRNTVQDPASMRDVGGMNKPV

SMILES: CN1CCC[C@@H]1CCO[C@](C)(c1ccccc1)c1ccc(Cl)cc1 [clemastine fumarate]
- chronic disability in the EAE model (EAE model): has been shown to reduce chronic disability in the EAE model

SMILES: CN(C(=O)/C=C/c1ccoc1)[C@@H]1CC[C@@]2(O)[C@H]3Cc4ccc(O)c5c4[C@@]2(CCN3CC2CC2)[C@H]1O5 [nalfurafine, (E)-N-[(4R,4aS,7R,7aR,12bS)-3-(cyclopropylmethyl)-4a,9-dihydroxy-1,2,4,5,6,7,7a,13-octahydro-4,12-methanobenzofuro[3,2-e]isoquinoline-7-yl]-3-(furan-3-yl)-N-methylprop-2-enamide]
- myelin in corpus callosum (TEM) ([1]; 0.1 mg/kg i.p. daily from week 4, day 65 (Example 9)): more myelin was detected, and the structure was less disorganized
- area of myelination [1, 14]: percentage increase in area of myelination
- number of myelinated axons [1, 14]: percentage increase in the number of myelinated axons
- axonal-myelin ultrastructure, repair [1, 15]: surprisingly similar to that of the naïve (normal) tissue
- mean g-ratio [1, 15]: 0.75±0.15
- Teff:cm ratio (effector to central memory CD4 T cells) [2]: reduced ratio in the nalfurafine-treated compared to the vehicle-treated mice
- overall number of CD4 T cells in spleen [2]: the same between nalfurafine and vehicle treated mice
- proportion of major lymphocyte populations in spleen (% live leukocytes) [2]: do not alter the proportion of the major lymphocyte populations in the spleen
- % change in body weight (EAE-induced weight loss): mice recover from EAE-induced weight loss
- disease reduction in the presence of norBNI ([3]; nalfurafine 0.01 mg/kg i.p. daily with norBNI 10 mg/kg i.p. weekly): effective at reducing disease independently of the KOR
- number of infiltrating immune cells in brain (ratio to microglia) ([4]; 0.03 mg/kg i.p. daily from day 17, day 45): significantly reduced the number of infiltrating immune cells
- number of infiltrating immune cells in brain (ratio to microglia) ([4]; 0.03 and 0.01 mg/kg i.p. daily from disease onset, chronic phase (>24 days)): significantly reduced the number of infiltrating immune cells
- effective dose in humans for itch (itch): 2.5 μg/body/day
- rotarod performance at week 9 relative to week 5 [5]: Cuprizone-induced disability was reversed
- ED50 [6]: 7.3 µg/kg
- number of activated GFAP+ astrocytes per section [7]: significantly reduces the number of activated astrocytes
- % weight change ([8]; 0.3% cuprizone 5 weeks, 0.1 mg/kg i.p. daily from week 4, 65 days (Example 7)): reversed significantly more effectively by administration of nalfurafine than vehicle alone
- % weight change in recovery phase ([8]; 0.3% cuprizone 35 days, nalfurafine 0.1 mg/kg or U-50488 1.6 mg/kg i.p. daily from day 28 (Example 28)): enhances recovery of the lost weight faster
- leucocyte infiltration score (0-3), H&E [9]: surprising reduction of infiltrating leucocytes
- Complete Inhibition ([10]; IV, Winfuran assessment report EMA/CHMP/138212/2014): 7.5-10^ μg/kg
- Inhibition printed in brackets beside the dose ([10]; PO, 100 μg/kg, Winfuran assessment report EMA/CHMP/138212/2014): 66%
- Complete Inhibition ([10]; PO, Togashi et al. (2002)): 100 µg/kg
- Complete Inhibition ([10]; PO, Winfuran assessment report EMA/CHMP/138212/2014): 100 µg/kg
- Complete Inhibition ([10]; SC, Winfuran assessment report EMA/CHMP/138212/2014): 10 µg/kg
- mechanical threshold scores vs vehicle [11]: improved mechanical threshold scores compared to vehicle treated mice
- mechanical withdrawal threshold, pre vs post treatment [11]: reduced to baseline levels
- myelination of nerve axons in spinal cord (TEM) [12]: nerve axons appear healthy and well-myelinated
- Complete Inhibition (Morphine induced scratch): 5 to 10 µg/kg
- lesion load and myelin density in ventral horn (luxol fast blue) ([13]; 0.01 mg/kg i.p. daily from disease onset): reduces this lesion load and demyelination
- % demyelination of spinal cord (luxol fast blue) ([13]; 0.03 or 0.01 mg/kg i.p. daily from disease onset): significant reduction in the percentage of demyelination

SMILES: Oc1ccc2c3c1O[C@H]1c4[nH]c5c(c4C[C@@]4(O)[C@@H](C2)N(CC2CC2)CC[C@]314)C[C@@]1(O)[C@H]2Cc3ccc(O)c4c3[C@@]1(CCN2CC1CC1)[C@H]5O4 [norBNI]
- disease score, full recovery (score <0.5) [3, 16]: abolishes the ability of nalfurafine to enable full recovery from paralysis
- percentage recovered and number of days in recovery [3, 16]: abolishes the ability of nalfurafine to enable and sustain recovery from paralysis
